Our source for the IC50 and AC50 values is US20240409536A1, “COMPOUNDS AND METHODS FOR MODULATING SPLICING” (REMIX THERAPEUTICS INC., priority 2021, published 2024).

One experiment relates to MYB mRNA. As to the kind of experiment: Splicing RT-qPCR assay, MYB canonical (CJ) and alternative (AJ) junction mRNA. In kind it is cell-based. The conditions noted are these: Homo sapiens, A673 or K562 cells, 24 hours; for IC50: decrease in canonical junction mRNA; for AC50: increase in alternative junction mRNA. The method in brief: (§1)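 Canonical and alternative junction mRNAs measured by cell-lysate one-step RT-qPCR, normalized to PPIA in A673 or GAPDH/GUSB in K562. Cells received compound for 24 h at 37 °C, 5% CO2, 11-point 3-fold series from 10 uM final top dose, DMSO at most 0.25%.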
(Quantitative PCR measures a nucleic acid by following its amplification.)

For another experiment, the system named is HTT mRNA. As to the kind of experiment: Splicing RT-qPCR assay, HTT canonical (CJ) and alternative (AJ) junction mRNA. It is filed as cell-based. The conditions noted are these: Homo sapiens, A673 or K562 cells, 24 hours; for IC50: decrease in canonical junction mRNA; for AC50: increase in alternative junction mRNA. The method in brief:
as §1

SMILES strings stand for the structures.

On to `Cc1cn2cc(NC(=O)c3ccc(N4CCNC(C)(CO)C4)c4nccnc34)cc(F)c2n1` (centres unmarked) [Compound 368], for which, in the experiment on MYB mRNA, the concentration for half-maximal inhibition (IC50) (in general, the midpoint of a concentration-inhibition curve) is less than 0.1 µM and the AC50 (in general, the concentration at which the activity in the assay is half-maximal) is less than 0.1 µM. Further, in the experiment on HTT mRNA, the IC50 was in the range of 1 to 10 µM and the AC50 was in the range of 1 to 10 µM.
Take `Cc1cn2cc(NC(=O)c3ccc(N4CCN(CCO)C5(CC5)C4)c4nccnc34)cc(F)c2n1` [Compound 369]: in the experiment on MYB mRNA, the IC50 fell in the range of 0.1 to 1 µM and the AC50 was in the range of 0.1 to 1 µM. In the experiment on HTT mRNA, this compound showed an IC50 of 1 to 10 µM and an AC50 of 1 to 10 µM.
